From patent US12358904B2, “Inhibitors of TYK2” (Atomwise Inc., priority 2023, dated 2025)

What was measured:
[1] = target: T1, TYK2-JH2 (Homo sapiens, UniProt P29597); assay: TYK2-JH2 HTRF binding assay (ligand efficiency); details: calculated from IC50 of the TYK-JH2 binding assay (Equation 1)
T1 construct: TYK JH2 enzyme mix (ChemPartnec CP20210818A-BV); purchased ChemPartner CP20210818A-BV
Protocol: The following example describes the TYK2-JH2 HTRF binding assay used to determine the ligand efficiency of the TYK2 inhibitors.
To calculate ligand efficiency, Equation 1 is applied:
[formula] in which IC50 comes from the binding assay used to determine compound potency.
TYK JH2 enzyme mix (ChemPartnec CP20210818A-BV), tracer (ChemPartnec CP-0029472-051) and mAb Anti-6HIS Tb cryptate Gold (Cisbio: Cat No. 61H12TLA) mix were prepared in assay buffer (10 mM MgCl2, 20 mM HEPES pH 7.5, 0.01% Triton X-100, 1 mM DTT). Compounds diluted in DMSO (Final Concentrations 0.1 to 0.000005 [μM]) and enzyme mix (0.5 nM Final Concentration) were added to 384 well plates, briefly centrifuged and incubated at room temperature for 10 minutes. After incubation, tracer mix (Tracer-35 nM final concentration); (Mab Anti-6HIS Tb cryptate Gold-0.5× final)) was added, briefly centrifuged then incubate at room temperature 60 minutes. After incubation, plates were read by Envision TR-FRET (Ex340/Em495/520) protocol (PerkinElmer-Envision 2104 multilabel plate reader).

[2] = system: IL-12/pSTAT4; assay: IL-12 induced pSTAT4 assay in NK-92 cells; assay type: cell-based; details: Homo sapiens, NK92, IL-12 stimulation, read-out: Cellular potency (IL-12/pSTAT4)
Protocol: The following example describes the IL-12 induced pSTAT4 assay used to determine the cellular potency (IL-12/pSTAT4) of the TYK2 inhibitors.
NK-92 cells (human natural killer lymphoma cell line) were cultured in MEM α, nucleosides (Life Technologies, 22571020) 12.5% heat inactivated FBS (Dominique Dutscher, S1810), 12.5% heat inactivated Horse serum (Life Technologies, 26050088) and 1% Penicillin-Streptomycin (Life Technologies, 15140122), 5 ng/mL human IL-2 (R&D systems, 202-II/CF), 0.2 mM inositol (Sigma, PHR1351 lot LRAC4118), 0.1 mM β-mercaptoethanol (Life Technologies, 31350010), and 0.02 mM folic acid (Sigma, F8758).
NK-92 cells were starved overnight in starvation medium (Opti-MEM (ThermoFisher, 11058-021), 10% charcoal stripped FBS (ThermoFisher 12676-029), and 1% Penicillin (100U/ml)-Streptomycin (100 μg/ml) (ThermoFisher, ref 15140122)), then plated in a 96-well tissue culture plate (20K cells/well) prior to pre-incubation with test compounds (Final Concentration [nM] 1000 to 0.05) for 30 minutes at 37° C. Cells were stimulated with IL-12 (Final Concentration l0 ng/ml) for 30 minutes at 37° C., and terminated by addition of lysis buffer (MSD K150PAD-2). pSTAT4 (Tyr693) was detected using the Mesa Scale Discovery platform (MSD K150PAD-2), according to manufacturer's instruction. Briefly, cell lysates were added to pre-blocked plates and incubated for 1 hour at room temperature. Plates were washed and incubated with detection antibody for 1 hour at room temperature. Plates were washed and Read Buffer was added prior to measurement on the MSD (1300 MSD Quickplex SQ 120).

[3] = system: IL-6/pSTAT3; assay: IL-6 induced pSTAT3 assay in TF-1 cells; assay type: cell-based; details: Homo sapiens, read-out: Cellular selectivity (IL-6/pSTAT3)
Protocol: The following example describes the IL-6 induced pSTAT3 assay used to determine the cellular selectivity (IL-6/pSTAT3) of the TYK2 inhibitors.
TF-1 (ATCC®, CRL-2003™) cells were cultured in RPMI 1640 Medium, with GlutaMAX™ Supplement, HEPES for Cell Culture (Life Technologies, 72400047), 10% Fetal Bovine Serum (Life Technologies, 26400044), 2 ng/mL human recombinant GM-CSF (Life Technologies, PHC2013), 1 mM Sodium pyruvate (Life Technologies, 11360039), 1% MEM NEAA (Life Technologies, 11140-035), 1% Penicillin/Streptomycin (Life Technologies, 15140-122).
TF-1 (70×10^6) cells were starved overnight in T01 50 flasks (Opti-MEM™ I Reduced Serum Medium, no phenol red (Life Technologies, 11058-021), 1 mM Na pyruvate (Life Technologies, 11360039), 1% MEM NEAA (Life Technologies, 11140-035), and 1% Penicillin/Streptomycin (Life Technologies, 15140-122)) then seeded into 96-well TPP plates (150 000 cell/well) and incubated with test compounds (Final Concentration [nM] 10000-0.05) for 30 minutes at 37° C. […] Stimulation was terminated by addition of lysis buffer (MSD K150SVD) and pSTAT3 detection was measured with Phospho-STAT3 (Tyr705) Kit MSD K150SVD)) according to manufacturer's instruction. Briefly, cell lysates were added to pre-blocked plates, sealed, and shake for 1 hour at room temperature. Plates were then washed and incubated with detection antibody for 1 hour at room temperature. After washing, Read Buffer was added, and plates were read on MSD instrument (Model 1300 MSD Quickplex SQ 120).

[4] = system: GM-CSF/pSTAT5; assay: GM-CSF induced pSTAT5 assay in CellSensor irf1-bla TF-1 cells; assay type: cell-based; details: GM-CSF 1 ng/mL; for IC50: Homo sapiens, read-out: Cellular selectivity (GM-CSF induced pSTAT5)
Protocol: The CellSensor irf1-bla TF-1 cell line (LifeTechnologies, K1657) was cultured in RPMI 1640 Medium (Invitrogen 72400-047), 10% Fetal Bovine Serum (Invitrogen, 26400044), 1 mM Sodium pyruvate (Life Technologies, 11360039), 1% MEM NEAA (Life Technologies, 11140-035), 2 ng/ml of human recombinant GM-CSF (Fisher, PHC2015), 1% Penicillin/Streptomycin (Life Technologies, 15140-122) and 5 μg/ml of Blasticidin (ThermoFisher, A1113903).
The cell line was seeded in a T75 flask at 13×10^6 cells/50 mL in starvation medium (Opti-MEM™ I Reduced Serum Medium, no phenol red (Life Technologies, 11058-021), 1 mM Na pyruvate (Life Technologies, 11360039), 1% MEM NEAA (Life Technologies, 11140-035), and 1% Penicillin/Streptomycin (Life Technologies, 15140-122)) for 16 hours at 37° C. under 5% CO2 the day before the assay.
For the assay, CellSensor irf1-bla TF-1 cells were seeded at 30 000 cells/32 μL (starvation medium)/well in a 384-well plate.
Compounds were added on the cells in 4 μL (starvation medium)/well at 10× the final concentration. They were incubated for 30 minutes at 37° C.
Human recombinant carrier-free GM-CSF (ThermoFisher, ref PHC2015) was added to the wells in 4 μL (starvation medium)/well at 10×. The final concentration was 1 ng/mL. Control wells without GM-CSF treatment were added. Plates were incubated for 5 hours at 37° C.
6× LiveBlazer-FRET substrate (Invitrogen, K1085) was added to the wells at 8 μL/well. The substrate was prepared shortly before use by mixing 6 μL of solution A and 60 μL of solution B to 934 μL of solution C. Plates were incubated for 2.5 hours at room temperature in the dark. The plates were read on an Envision (Perkin Elmer) with an excitation at a wavelength of 409 nm and two wavelengths for the emission 520 nm and 450 nm. The ratio between the […] emission was used to calculate the IC50s.
The IC50 for the inhibition of pSTAT5 was calculated with the Xlfit software using the 4 Parameter Logistic Model or Sigmoidal Dose-Response Model (model 205).

T1 sequence (P29597 589-875 limits assumed): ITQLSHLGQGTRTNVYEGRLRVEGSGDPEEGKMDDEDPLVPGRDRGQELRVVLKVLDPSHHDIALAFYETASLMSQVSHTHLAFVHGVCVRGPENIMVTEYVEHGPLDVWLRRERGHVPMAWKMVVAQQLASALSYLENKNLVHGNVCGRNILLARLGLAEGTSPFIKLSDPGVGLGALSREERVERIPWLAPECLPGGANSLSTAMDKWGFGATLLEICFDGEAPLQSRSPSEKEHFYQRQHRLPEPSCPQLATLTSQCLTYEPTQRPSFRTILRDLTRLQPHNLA

| SMILES | Ligand Efficiency [1] | IC50 [2] [nM] | IC50 [3] [µM] | Cellular selectivity (GM-CSF induced pSTAT5) [4] | IC50 [4] [µM] |
| --- | --- | --- | --- | --- | --- |
| C[C@H](c1ccc(Nc2cc(Nc3ncccc3S(C)(=O)=O)ncn2)nc1)N1CC2(COC2)C1 [Compound 17, I—N^4-(5-(1-(2-oxa-6-azaspiro[3.3]heptan-6-yl)ethyl) 73yridine-2-yl)-N^6-(3-(methylsulfonyl)73yridine-2-yl)pyrimidine-4,6-diamine] | †† (††: 0.37-0.39) | < 100 | > 10 | †††† |  |
| CS(=O)(=O)c1cccnc1Nc1cc(Nc2cccc(C(F)(F)F)n2)ncn1 [Compound 19, N^4-(3-(methylsulfonyl)100yridine-2-yl)-N^6-(6-(trifluoromethyl) 100yridine-2-yl)pyrimidine-4,6-diamine] | ††† (†††: >0.39) | < 100 | > 10 |  | > 10 |
| Cc1cccc(Nc2cc(Nc3ccccc3NS(C)(=O)=O)ncn2)n1 [Compound 53, N-(2-(6-(6-methylpyridin-2-ylamino)pyrimidin-4-ylamino)phenyl) methanesulfonamide] | ††† (†††: >0.39) | 100 to 1000 | < 4 |  | 4 to 10 |
| CC(NC1CC(F)(F)C1)c1ccc(Nc2cc(Nc3ncccc3S(C)(=O)=O)ncn2)nc1 (stereo not shown) [Compound 35, N^4-(5-(1-(3,3-difluorocyclobutylamino)ethyl)122yridine-2-yl)-N^6-(3-(methylsulfonyl)122yridine-2-yl)pyrimidine-4,6-diamine] | ††† (†††: >0.39) | < 100 | > 10 |  | > 10 |
| CC(NC1CCOC1)c1ccc(Nc2cc(Nc3ccccc3S(C)(=O)=O)ncn2)nc1 (stereo not shown) [Compound 26, N^4-(2-(methylsulfonyl)phenyl)-N^6-(5-(1-(tetrahydrofuran-3-ylamino)ethyl)106yridine-2-yl)pyrimidine-4,6-diamine] | †† (††: 0.37-0.39) | < 100 | > 10 |  | > 10 |
| CC(C)[C@@H](c1ccc(Nc2cc(Nc3ncccc3S(C)(=O)=O)ncn2)nc1)N1CC2(COC2)C1 [Compound 13, (S)—N^4-(5-(2-methyl-1-(2-oxa-6-azaspiro[3.3]heptan-6-yl)propyl)pyridine-2-yl)-N^6-(3-(methylsulfonyl)93yridine-2-yl)pyrimidine-4,6-diamine] | †† (††: 0.37-0.39) | < 100 | 4 to 10 |  | > 10 |
| Cc1nc(Nc2cc(Nc3ncccc3S(C)(=O)=O)ncn2)ccc1NC1(C)COC1 [Compound 6, N^4-(6-methyl-5-((3-methyloxetan-3-yl)amino)82yridine-2-yl)-N^6-(3-(methylsulfonyl)82yridine-2-yl)pyrimidine-4,6-diamine] | ††† (†††: >0.39) | < 100 | 4 to 10 |  | > 10 |
| COc1cnc(Nc2cc(Nc3ccc([C@H](C)N4CC5(COC5)C4)cn3)ncn2)c(S(C)(=O)=O)c1 [Compound 3, (S)—N^4-(5-(1-(2-oxa-6-azaspiro[3.3]heptan-6-yl)ethyl)pyridine-2-yl)-N^6-(5-methoxy-3-(methylsulfonyl)77yridine-2-yl)pyrimidine-4,6-diamine] | †† (††: 0.37-0.39) | < 100 | 4 to 10 |  | > 10 |
| Cc1cccc(Nc2cc(Nc3ccccc3C(N)=O)ncn2)n1 [Compound 46] | ††† (†††: >0.39) | < 100 | < 4 |  | < 4 |
| Cc1nc(Nc2cc(Nc3ncccc3S(C)(=O)=O)ncn2)ccc1[C@H](C)N1CC2(COC2)C1 [Compound 12, N^4-(5-(1-(2-oxa-6-azaspiro[3.3]heptan-6-yl)ethyl)-6-methylpyridin-2-yl)-N^6-(3-(methylsulfonyl)92yridine-2-yl)pyrimidine-4,6-diamine] | ††† (†††: >0.39) | < 100 | < 4 |  | < 4 |
| CS(=O)(=O)c1ccccc1Nc1cc(Nc2ccc(N3CCOCC3)cn2)ncn1 [Compound 42, N^4-(2-(methylsulfonyl)phenyl)-N^6-(5-morpholinopyridin-2-yl) pyrimidine-4,6-diamine] | ††† (†††: >0.39) | 100 to 1000 |  |  |  |
| CS(=O)(=O)c1ccccc1Nc1cc(NC(=O)C2CC2)ncn1 [Compound 69, N^4-(cyclopropylcarbonyl)-N^6-(2-(methylsulfonyl)phenyl)pyrimidine-4,6-diamine] | ††† (†††: >0.39) | > 1000 |  |  |  |
| CC(c1ccc(Nc2cc(Nc3ncc(C4COC4)cc3S(C)(=O)=O)ncn2)nc1)N1CC2(COC2)C1 (stereo not shown) [Compound 78, N^4-(5-(1-(2-oxa-6-azaspiro[3.3]heptan-6-yl)ethyl)175yridine-2-yl)-N^6-(3-(methylsulfonyl)-5-(oxetan-3-yl)175yridine-2-yl)pyrimidine-4,6-diamine] | † (†: <0.37) | > 1000 |  |  |  |
